The results in this text go back to US5696082A, “Hydroxamic acid derivatives” (British Biotech Pharmaceuticals Limited, priority 1993, dated 1997).

One assay deals with collagenase (Homo sapiens, UniProt P03956). The experiment in a line: Collagenase inhibition (hydrolysis of acetylated 14C collagen). In kind it is biochemical. Conditions: 37° C., 16 hours, pH 7.5, acetylated 14C collagen. Here is the method: The potency of compounds of the invention as inhibitors of collagenase was determined by the procedure of Cawston and Barrett, (Anal. Biochem., 99, 340-345, 1979), hereby incorporated by reference, whereby a 1 mM solution of the compound being tested, or a dilution thereof, was incubated at 37° C. for 16 hours with collagen and collagenase (buffered with 25 mM Hepes [Registered Trade Mark], pH 7.5 containing 5 mM CaCl2, 0.05% Brij [Registered Trade Mark] 35 and 0.02% NAN3). The collagen Was acetylated 14C collagen prepared by the method of Cawston and Murphy, (Methods in Enzymology, 80, 711, 1981), hereby incorporated by reference. The samples were centrifuged to sediment undigested collagen, and an aliquot of the radioactive supernatant removed for assay on a scintillation counter as a measure of hydrolysis.
Sequence of collagenase (P03956 100-469): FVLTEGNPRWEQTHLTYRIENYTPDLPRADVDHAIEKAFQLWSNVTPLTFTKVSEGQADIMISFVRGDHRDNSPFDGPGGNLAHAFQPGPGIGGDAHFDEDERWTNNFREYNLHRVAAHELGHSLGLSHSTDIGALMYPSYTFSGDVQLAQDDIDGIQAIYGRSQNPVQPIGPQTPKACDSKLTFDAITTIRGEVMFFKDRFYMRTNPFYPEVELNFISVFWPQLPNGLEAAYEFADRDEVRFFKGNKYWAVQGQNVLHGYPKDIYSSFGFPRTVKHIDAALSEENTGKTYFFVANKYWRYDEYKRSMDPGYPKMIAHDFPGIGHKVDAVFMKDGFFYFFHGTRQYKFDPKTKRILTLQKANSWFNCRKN

A further assay concerns the target stromelysin (Homo sapiens, UniProt P08254). The experiment in a line: Stromelysin inhibition (hydrolysis of 14C acetylated casein). In kind it is biochemical. The conditions noted are these: 37°, 16 hours, pH 7.5, 14C acetylated casein. Here is the method: The potency of compounds of the invention as inhibitors of stromelysin was determined by the procedure of Cawston et al, (Biochem. J., 195, 159-165, 1981), hereby incorporated by reference, whereby a 1 mM solution of the compound being tested, or a dilution thereof, was incubated at 37° for 16 hours with stromelysin and ^14 C acetylate casein (buffered with 25 mM Hepes [Registered Trade Mark], pH 7.5 containing 5 mM CaCl2, 0.05% Brij [Registered Trade Mark] 35 and 0.02% NAN3). The casein was acetylated ^14 C casein prepared by the method of Cawston et al (ibid).

Sequence of stromelysin (P08254 100-477): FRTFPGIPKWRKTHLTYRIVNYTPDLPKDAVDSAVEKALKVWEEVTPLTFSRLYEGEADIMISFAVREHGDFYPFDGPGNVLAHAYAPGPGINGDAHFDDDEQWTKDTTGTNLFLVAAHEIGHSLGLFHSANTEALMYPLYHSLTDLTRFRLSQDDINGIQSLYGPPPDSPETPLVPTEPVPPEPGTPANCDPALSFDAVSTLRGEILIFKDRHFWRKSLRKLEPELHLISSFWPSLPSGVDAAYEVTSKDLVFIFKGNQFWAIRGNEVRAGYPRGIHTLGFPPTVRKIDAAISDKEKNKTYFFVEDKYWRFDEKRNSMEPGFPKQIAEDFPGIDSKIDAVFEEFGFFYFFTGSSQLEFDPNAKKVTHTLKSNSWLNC

For `CNC(=O)[C@H](Cc1ccc(OCC(=O)N[C@@H]2O[C@H](CO)[C@@H](O)[C@H](O)[C@H]2NC(C)=O)cc1)NC(=O)[C@@H](CC(=O)NO)CC(C)C` [Example 3, [4-(N-Hydroxyamino)-2R-isobutylsuccinyl]-O-[(2-acetamido-2-deoxy-β-D-glucopyranosyl)carboxamidomethyl]-L-tyrosine-N-methylamide], the IC50 (in general, the concentration needed to halve the response being measured) against collagenase is 0.02 µM; on stromelysin, 0.6 µM.
